Measured values as given in patent US20060052248A1, “Use of a substance with oxytocin activity in order to stimulate plant growth” (priority 2001, published 2006).

Assays:
Format in all cases: in vivo
bent (Agrostis tenuis) = assay: Germination test, bent seeds
Description: (§1) Statistical analysis was performed by means of 2-way ANOVA followed by Bonferoni's test for post hoc comparison. Results are given as mean values. Differences in the number of germinated seeds, coleoptile length, root length (Example 1) and growth of lettuce (Example 2) were assessed by Student's t-test for independent means. Results were considered significant when p<0.05. In each of 10 Petri dishes with a diameter of 10 cm, 100 seeds of bent (Agrostis tenuis) are placed together with two filter papers. To five of the Petri dishes is added 4.5 ml of a 1 μg/ml aqueous solution of oxytocin. To the other five Petri dishes is added the same amount of tap water. All ten Petri dishes are then placed in darkness for germination during fourteen days at a temperature of 18° C.

[1] = system: winter wheat (Triticum sativum); assay: Germination test, winter wheat seeds
Description: as §1, with “winter wheat (Triticum sativum)” for “bent (Agrostis tenuis)”, “are” for “are then”

[2] = system: lettuce (Lactuca sativa), sort "Calgary"; assay: Growth test, lettuce in nutrient solution; conditions: for Root, dm / Shoot, dm: dry weight/fresh weight; for Root length / Root, dw / Root, fw / Shoot, dw / Shoot, fw / Whole plant, dw / Whole plant, fw: harvest 21 days; for Shoot/root, dw / Shoot/root, fw: ratio
Description: Statistical analysis was performed by means of 2-way ANOVA followed by Bonferoni's test for post hoc comparison. Results are given as mean values. Differences in the number of germinated seeds, coleoptile length, root length (Example 1) and growth of lettuce (Example 2) were assessed by Student's t-test for independent means. Results were considered significant when p<0.05.
The plant used was lettuce (Lactuca sativa), sort “Calgary” and non-disinfected ecological seeds were used. In the same manner as in Example 1, 150 seeds are germinated in oxytocin solution and 150 seeds are germinated in tap water, in both cases in darkness.
After germination for six days, the germs are put into 1 litre test vessels with four germs per vessel. To ten vessels are added oxytocin treated germs and to ten other vessels are added germs treated with tap water, giving totally eighty plants. Each vessel contains 1 litre 300 μM calcium sulphate solution. Other nutrients were added on the first and third day and from day five until harvest, 21 days after transferring germs to vessels. Increasing volumes from a stock nutrient solution (24 mM potassium, 2.5 mM magnesium, 22.3 mM ammonium, 4 mM phosphorus, 46.9 mM nitrate, 1 mM chlorine and trace elements) were supplied to meet the immediate nutrient demand of plants with a relative growth rate of 20% day^−1. Three days after the transport of the germs to the vessels, 1 mg of oxytocin was added to half of the oxytocin treated germs and to half of the germs treated with tap water giving a oxytocin concentration of 1 μg/ml. The growth phase experiment was performed in a climate chamber with 14 hours illumination per day at a temperature of 18° C. at light and at a temperature of 14° C. in darkness.
Accordingly, the eighty plants have been treated as follows:
20 plants (5 vessels each having 4 plants)—treated with tap water during germination and growth (denoted −ox/−ox);
20 plants (5 vessels each having 4 plants)—treated with oxytocin solution during germination and with tap water during growth (denoted +ox/−ox);
20 plants (5 vessels each having 4 plants)—treated with tap water during germination and with oxytocin solution during growth (denoted −ox/+ox);
20 plants (5 vessels each having 4 plants)—treated with oxytocin solution during germination and growth (denoted +ox/+ox).

[3] = 1 μg/ml aqueous oxytocin, 14 days darkness, 18° C.
[4] = 100 seeds per dish, 1 μg/ml aqueous oxytocin, 14 days darkness, 18° C.
[5] = versus tap water, 1 μg/ml oxytocin
[6] = +ox/+ox: oxytocin during germination and growth
[7] = +ox/−ox: oxytocin during germination only
[8] = −ox/+ox: oxytocin 1 μg/ml during growth only

oxytocin
Coleoptile length (bent (Agrostis tenuis); [3]): 39.1 mm
Root length (bent (Agrostis tenuis); [3]): 15.7 mm
Germinated seeds (mean number) (bent (Agrostis tenuis); [4]): 9.8
Effect on germination and growth of seeds (in words) (bent (Agrostis tenuis); [5]): only the increase in root length was significant
Coleoptile length [1, 3]: 27.4 mm
Root length [1, 3]: 36.0 mm
Germinated seeds (mean number) [1, 4]: 97.0
Effect on germination and growth of seeds (in words) [1, 5]: increased the number of germinated seeds and stimulated the growth of seeds
Root length compared with control (in words) ([2]; +ox/+ox: oxytocin available during the whole experiment period): inhibited
Growth compared with control (−ox/−ox) (in words) ([2]; +ox/+ox: oxytocin during both germination and growth): no effects compared with control
Root, dm [2, 6]: 6.44b %
Shoot, dm [2, 6]: 13.34b %
Root length [2, 6]: 21.00b cm
Root, dw [2, 6]: 0.126b g
Root, fw [2, 6]: 1.94ab g
Shoot, dw [2, 6]: 0.596b g
Shoot, fw [2, 6]: 4.466a g
Whole plant, dw [2, 6]: 0.721b g
Whole plant, fw [2, 6]: 6.41ab g
Shoot/root, dw [2, 6]: 4.76a
Shoot/root, fw [2, 6]: 2.30a
Growth compared with control (−ox/−ox) (in words) ([2]; +ox/−ox: oxytocin at germination): significant increase in growth
Root, dm [2, 7]: 7.03a %
Shoot, dm [2, 7]: 14.06ab %
Root length [2, 7]: 24.4a cm
Root, dw [2, 7]: 0.141a g
Root, fw [2, 7]: 2.03a g
Shoot, dw [2, 7]: 0.641ab g
Shoot, fw [2, 7]: 4.559a g
Whole plant, dw [2, 7]: 0.782a g
Whole plant, fw [2, 7]: 6.59a g
Shoot/root, dw [2, 7]: 4.59a
Shoot/root, fw [2, 7]: 2.24a
Root, dm [2, 8]: 6.92ab %
Shoot, dm [2, 8]: 14.55a %
Root length [2, 8]: 23.6a cm
Root, dw [2, 8]: 0.141a g
Root, fw [2, 8]: 2.00a g
Shoot, dw [2, 8]: 0.656a g
Shoot, fw [2, 8]: 4.508a g
Whole plant, dw [2, 8]: 0.797a g
Whole plant, fw [2, 8]: 6.51ab g
Shoot/root, dw [2, 8]: 4.67a
Shoot/root, fw [2, 8]: 2.25a
Growth compared with control (−ox/−ox) (in words) ([2]; −ox/+ox: oxytocin during growth in nutrient solution): significant increase in growth
